Series [1] deals with phospho-p42/44 MAPK in MiaPaCa2 cells. As to the kind of experiment: p42/44 MAPK phosphorylation, western blotting, MiaPaCa2. The class given is cell-based, human. The settings on record: MiaPaCa2, MEK4 inhibitor 10 μM, 5 hours. As for the experimental part:
The effects of different treatments on phospho-p42/44 MAPK and total p42/44 MAPK expression levels were determined by western blotting. HSP90 was used as loading control. The blots are representative of at least three biological replicates.
(§1) Whole cell extracts of cultured cells were prepared in radioimmunoprecipitation (RIPA) lysis buffer supplemented with phosphatase and protease inhibitors (Calbiochem). Protein concentration was determined by the bicinchoninic acid assay (BCA) (ThermoFisher) and separated by the SDS-PAGE technique. […] Secondary anti-mouse IgG (A4416) and anti-rabbit IgG (A6667) antibodies were purchased from Sigma-Aldrich and used a 1:4000 dilution. Images of blots were acquired on HyBlot ES Autoradiography Film (Thomas Scientific, Swedesboro, NJ, USA) following incubation with SuperSignal West Pico PLUS (ThermoFisher).
A general note: A western blot detects proteins with antibodies after separation by electrophoresis.

A further series addresses T1, RAF (Homo sapiens, UniProt P04049).
T1 construct: purchased Eurofins DiscoverX scanEDGE
As to the kind of experiment: scanEDGE DiscoverX kinome-wide scan, RAF. The settings on record: 10 μM. The class given is binding. The source says: (§2) To compare our compounds to the rest of the MEK inhibitors discovered thus far, we turned to the DiscoverX platform (KINOMEscan®, Eurofins DiscoverX), a widely used assay for comparing selectivity across the kinome. The DiscoverX platform reports the thermodynamic Kd in order to facilitate direct comparison of inhibitor affinity across the kinome, independent of ATP concentration.

The subject of the next series is MiaPaCa2 cells. The series is described as follows: cell proliferation (cell count after 72 hours), MiaPaCa2. The class given is cell-based, human. The note with it: MiaPaCa2, 72 hours, varying doses, single agent. As for the experimental part: (§3) After 72 hours, cells were trypsinized, counted, and the cell numbers were normalized against the DMSO treatment. Mean±SD. Graphs are representative of 3 biological replicates.
as §3
Cell numbers from different treatments were normalized against the DMSO treatment, and CDI is calculated as follows: CDI=AB/(A×B), with AB being the ratio of the combination groups to control group and A or B being the ratio of the single agent group to the DMSO group. Mean±SEM from 3 biological replicates.
(§4) We also examined the effects of these inhibitors on JNK phosphorylation and proliferation of two pancreatic cancer cell lines (CD18 and MiaPaCa2).
(§5) Human pancreatic cancer cell lines (CD18/HPAF-II and MiaPaCa2) and HEK293T cells were obtained from American Type Culture Collection. All cell lines were cultured according to the manufacturer's protocol. All media contained 10% Fetal Bovine Serum (FBS) and antibiotics (100 U/mL Penicillin and 100 μg/mL Streptomycin).

The nature of series [2]: PAMPA assay (BioDuro-Sundia). The class given is in vitro ADME. (In PAMPA a lipid-coated filter parts donor from acceptor wells.)
Series [3] concerns phospho-p42/44 MAPK in HEK293T cells. The series is described as follows: p42/44 MAPK (ERK1/2) phosphorylation, western blotting, HEK293T. The class given is cell-based, human. The settings on record: anisomycin pretreatment, compound 100 μM, 5 hours. How it is done:
(§6) HSP90 was used as loading control. The blots are representative of at least three biological replicates.
(§7) We next evaluated the effects of our inhibitors on the phosphorylation activity and expression of MEK1/2, MEK3/6, and MEK7. […] We also evaluated the effects on p42/44 MAPK (ERK1/2), which functions downstream of MEK1/2.
as §1

Series [4] has as its system phospho-p38 MAPK in HEK293T cells. The series is described as follows: p38 MAPK phosphorylation, western blotting, HEK293T. The class given is cell-based, human. The note with it: anisomycin pretreatment, compound 100 μM, 5 hours. As for the experimental part:
as §6, §7, §1

Another series is described as follows: in vitro. The settings on record: microsomes.
The subject of the next series is Caco-2. The series is described as follows: Caco-2 permeability assay. The series is classed as in vitro ADME.
The nature of series [5]: Log D study (BioDuro-Sundia). The settings on record: pH of 7.4.
The target of the next series is T2, MEK7 (Homo sapiens, UniProt O14733).
T2 construct: purchased Carna Biosciences
T2 sequence (O14733 1-419): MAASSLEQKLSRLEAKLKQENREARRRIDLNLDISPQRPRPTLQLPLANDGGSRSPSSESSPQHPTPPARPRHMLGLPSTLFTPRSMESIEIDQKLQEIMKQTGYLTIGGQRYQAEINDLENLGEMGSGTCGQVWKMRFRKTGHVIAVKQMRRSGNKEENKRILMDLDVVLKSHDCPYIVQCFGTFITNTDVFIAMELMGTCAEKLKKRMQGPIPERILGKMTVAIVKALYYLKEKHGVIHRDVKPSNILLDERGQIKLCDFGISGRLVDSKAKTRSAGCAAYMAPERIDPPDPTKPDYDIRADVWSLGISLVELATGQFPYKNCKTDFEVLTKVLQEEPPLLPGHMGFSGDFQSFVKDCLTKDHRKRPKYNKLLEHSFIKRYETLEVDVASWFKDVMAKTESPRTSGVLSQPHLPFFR
As to the kind of experiment: ADP-Glo kinase activity assay, MEK7. The class given is biochemical. How it is done:
The compounds were then evaluated both in vitro and in a cellular system. When studying kinase inhibitors, there are a multitude of ways to evaluate selectivity across kinases.
Procedure for a 5 μL Kinase reaction using the ADP-Glo Kinase Assay Kit from Promega. Staurosporine was used as the positive control, and DMSO as the negative control. Activity of recombinant active full-length human MEK4 (Carna Biosciences) was measured using the ADP-Glo assay with recombinant full-length human p38α (MAPK14). Kinase reactions with MEK7 (Carna Biosciences) were done at the same concentration and amounts with recombinant full-length human p38α (MAPK14).
For each well, 4 ng of MEK4 and 600 ng of p38α in Kinase buffer (CST) were used, and 1 μL of this mixture was dispensed per well.
Inhibitor was prepared in a DMSO solution. A dose response dilution was done in a 384-well Echo transfer plate. […] This mixture was allowed to incubate for 30 minutes at room temperature.
Using a Mantis, 1 μL, of an 8 μM ATP solution was added to each well, and the plate was allowed to incubate for another 1 hour at room temperature. […] All experiments were done in triplicate on the plate, and at least in one separate technical duplicate.
(In ADP-Glo the light output rises with the ADP produced.)

Another series concerns the target CYP 1A2 (Homo sapiens, UniProt P05177).
Another series has as its target T3, ERK1 (Homo sapiens, UniProt P27361).
T3 construct: purchased Eurofins DiscoverX scanEDGE
As to the kind of experiment: scanEDGE DiscoverX kinome-wide scan, ERK1. The series is classed as binding. The note with it: 10 μM.
Excerpt: as §2

The target in a further series is CYP 2C19 (Homo sapiens, UniProt P33261). As to the kind of experiment: CYP inhibition, 2C19.
Chain of CYP 2C19 (P33261 whole entry): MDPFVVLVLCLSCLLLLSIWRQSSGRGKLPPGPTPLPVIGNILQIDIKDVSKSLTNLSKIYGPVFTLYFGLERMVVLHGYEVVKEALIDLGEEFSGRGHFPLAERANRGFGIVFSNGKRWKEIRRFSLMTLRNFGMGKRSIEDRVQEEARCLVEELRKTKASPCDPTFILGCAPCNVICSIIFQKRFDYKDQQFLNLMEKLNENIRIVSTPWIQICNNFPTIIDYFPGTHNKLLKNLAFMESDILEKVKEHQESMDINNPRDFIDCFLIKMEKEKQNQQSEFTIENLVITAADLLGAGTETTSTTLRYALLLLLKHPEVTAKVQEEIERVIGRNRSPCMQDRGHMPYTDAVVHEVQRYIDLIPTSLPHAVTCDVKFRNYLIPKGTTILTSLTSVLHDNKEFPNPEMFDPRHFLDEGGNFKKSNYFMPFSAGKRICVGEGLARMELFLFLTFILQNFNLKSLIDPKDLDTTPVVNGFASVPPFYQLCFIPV
Another series deals with HEK293T cells. The series is described as follows: cell proliferation (cell count after 72 hours), HEK293T. The class given is cell-based, human. The settings on record: varying doses. How it is done: After 72 hours, cells were trypsinized, counted, and the cell numbers were normalized against the DMSO treatment. Mean±SD. Graphs are representative of 3 biological replicates. One-way ANOVA; ns, non-significant **, p<0.01 ***, p<0.001.
as §4, §5

Values joined by “and” are separate entries in the source; they are usually repeats but may differ in a detail not shown here. Identical values can stand only once. “Also recorded” adds a separate entry of the source. Like-named read-outs stand apart in the source and are kept apart here.

T1 sequence (P04049 whole entry): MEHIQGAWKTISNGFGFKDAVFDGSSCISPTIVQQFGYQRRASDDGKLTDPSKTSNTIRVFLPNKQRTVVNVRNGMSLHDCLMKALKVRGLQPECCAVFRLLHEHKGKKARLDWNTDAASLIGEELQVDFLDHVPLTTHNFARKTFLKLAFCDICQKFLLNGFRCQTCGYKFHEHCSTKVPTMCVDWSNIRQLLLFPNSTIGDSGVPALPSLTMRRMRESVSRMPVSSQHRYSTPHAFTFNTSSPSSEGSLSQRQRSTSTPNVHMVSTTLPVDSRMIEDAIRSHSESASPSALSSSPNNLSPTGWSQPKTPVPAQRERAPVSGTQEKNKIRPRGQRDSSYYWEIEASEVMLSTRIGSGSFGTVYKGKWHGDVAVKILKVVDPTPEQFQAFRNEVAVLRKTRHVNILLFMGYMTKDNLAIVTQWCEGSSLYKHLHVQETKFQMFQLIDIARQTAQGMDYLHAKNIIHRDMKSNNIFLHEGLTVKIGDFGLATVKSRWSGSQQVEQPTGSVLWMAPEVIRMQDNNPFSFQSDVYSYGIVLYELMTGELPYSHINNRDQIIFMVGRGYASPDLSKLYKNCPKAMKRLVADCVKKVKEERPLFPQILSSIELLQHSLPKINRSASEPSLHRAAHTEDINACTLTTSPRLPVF
Chain of CYP 1A2 (P05177 whole entry): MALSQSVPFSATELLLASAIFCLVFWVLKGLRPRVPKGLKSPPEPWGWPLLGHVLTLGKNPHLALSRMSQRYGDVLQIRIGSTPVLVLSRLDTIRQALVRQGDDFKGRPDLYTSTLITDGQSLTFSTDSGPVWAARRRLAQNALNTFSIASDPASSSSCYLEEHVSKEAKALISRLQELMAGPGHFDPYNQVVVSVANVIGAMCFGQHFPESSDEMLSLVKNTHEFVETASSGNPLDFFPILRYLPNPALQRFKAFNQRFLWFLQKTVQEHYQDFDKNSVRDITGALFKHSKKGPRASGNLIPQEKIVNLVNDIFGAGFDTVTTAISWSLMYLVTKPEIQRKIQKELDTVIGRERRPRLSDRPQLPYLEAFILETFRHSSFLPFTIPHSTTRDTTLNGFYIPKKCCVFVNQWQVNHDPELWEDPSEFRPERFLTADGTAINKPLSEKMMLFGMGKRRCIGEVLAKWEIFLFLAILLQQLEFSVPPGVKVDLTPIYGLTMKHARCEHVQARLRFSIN
T3 sequence (P27361 whole entry): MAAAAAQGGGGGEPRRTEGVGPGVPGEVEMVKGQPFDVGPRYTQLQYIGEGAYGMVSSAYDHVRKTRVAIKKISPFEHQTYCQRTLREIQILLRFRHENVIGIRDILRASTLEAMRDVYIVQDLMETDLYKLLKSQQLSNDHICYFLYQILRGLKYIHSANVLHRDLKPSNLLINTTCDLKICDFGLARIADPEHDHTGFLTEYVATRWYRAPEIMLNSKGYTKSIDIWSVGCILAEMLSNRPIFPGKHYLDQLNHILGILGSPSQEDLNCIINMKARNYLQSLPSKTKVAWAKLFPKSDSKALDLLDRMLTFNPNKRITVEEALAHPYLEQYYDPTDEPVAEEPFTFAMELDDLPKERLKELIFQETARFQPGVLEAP

The term half-life denotes how long it takes for the measured level to halve. Low values mean fast loss, high ones slow loss. What is called log D is lipophilicity at a set pH, counting ionised and neutral species. Lower therefore signals lower lipophilicity. In general, IC50 refers to the point on the concentration scale where inhibition reaches its midpoint. Turning to `NC(=O)c1ccc(NS(=O)(=O)c2cccc(-c3n[nH]c4cc(F)ccc34)c2)cc1` [Compound 15o, 4-((3-(6-fluoro-1H-indazol-3-yl)phenyl)sulfonamido)benzamide], in series [1], the “effect on p42/44 MAPK phosphorylation” value was “did not induce p42/44 MAPK phosphorylation”. Further, on RAF, the “inhibition of RAF” value was “did not inhibit”. In addition, the cell proliferation result in the series on MiaPaCa2 cells is on record as “decreased proliferation; also recorded: antiproliferative properties”; with HEK293T cells, “decreased. HEK293T cell proliferation in a dose-dependent manner”. Moreover, the “permeability in the PAMPA assay” value in [2] is given as “low permeability”. Moreover, in [3], the “effect on p42/44 MAPK phosphorylation after anisomycin” value is “reversed the effects of anisomycin”. For the same compound, in series [4], the “effect on anisomycin-induced p38 MAPK phosphorylation” value is “not affected”. The half-life in “in vitro” was more than 185 min. In the series “in vitro”, the “stability in the microsome assay” value was “good stability”. In addition, in the series on Caco-2, the Caco-2 permeability entry is reported as “medium to high permeability”. Also, the Pgp substrate entry in the series with Caco-2 (Caco-2 permeability assay) is “likely to be a Pgp substrate”. In addition, in series [5], the “log D” value worked out at 3.22. The IC50 is 96 nM at MEK7 (headline value per compound, read-out: MEK7 IC50); 41 nM and 150 nM on MEK7 (individual experiment, values in brackets, n=3, read-out: MEK7 IC50 of each experiment (IC50±SEM)). Besides, at CYP 1A2, the “inhibition of CYP 1A2” value is listed as “inhibited”. For the same compound, the “inhibition of ERK1” value at ERK1 is “did not inhibit”. The “inhibition of CYP 2C19” value against CYP 2C19 was “inhibited”.

Values taken from US20240116875A1, “RATIONAL DESIGN, OPTIMIZATION, AND BIOLOGICAL EVALUATION OF NOVEL MEK4 INHIBITORS AGAINST PANCREATIC ADENOCARCINOMA” (NORTHWESTERN UNIVERSITY, priority 2022, published 2024).
